Calls of active or inactive are those of the source. No cut-off for these calls is given here. Peptide text beside a SMILES is read from it. * marks the point of attachment. Cbz = O=C(OCc1ccccc1)*

Assay [1] concerns HL-60. The assay is described as follows: Cytotoxicity against human HL60 cells assessed as reduction in cell viability after 48 hrs by MTS assay. It counts as functional, cell-based. The settings on record: HL-60, 48 h. (Tetrazolium dyes change colour on reduction, which living cells bring about.)
For assay [2], the system named is SW480. Nature of the assay: Cytotoxicity against human SW480 cells assessed as reduction in cell viability after 48 hrs by MTS assay. In kind it is functional, cell-based. The conditions noted are these: SW480, 48 h.
Assay [3] has as its system A549. The assay is described as follows: Cytotoxicity against human A549 cells assessed as reduction in cell viability after 48 hrs by MTS assay. It counts as functional, cell-based. The conditions noted are these: A549, 48 h.
For assay [4], the system named is SMMC-7721. Nature of the assay: Cytotoxicity against human SMMC7721 cells assessed as reduction in cell viability after 48 hrs by MTS assay. In kind it is functional, cell-based. The settings on record: SMMC-7721, 48 h.
Assay [5] relates to MCF7. Nature of the assay: Cytotoxicity against human MCF7 cells assessed as reduction in cell viability after 48 hrs by MTS assay. In kind it is functional, cell-based. The conditions noted are these: MCF7, 48 h.
Assay [6] relates to RAW264.7. Nature of the assay: Antiinflammatory activity in mouse RAW264.7 cells assessed as reduction in LPS-induced NO production at 25 uM preincubated for 1 hr followed by LPS stimulation measured after 18 hrs by Griess assay. It counts as functional, cell-based. (The Griess reaction detects nitrite, a stable product of nitric oxide.)
Assay [7] relates to RAW264.7. Nature of the assay: Inhibition of LPS-stimulated ROS production in mouse RAW264.7 cells at 25 ug/ml preincubated for 1 hr followed by LPS stimulation measured after 18 hrs by DCFH-DA probe based flow cytometry. It counts as functional, cell-based.
Assay [8] in a line: Antioxidant activity assessed as DPPH radical scavenging activity at 50 uM after 1 hr. In kind it is functional. In general terms: Loss of DPPH colour is used to gauge radical scavenging.
Assay [9] is described as follows: Antioxidant activity assessed as DPPH radical scavenging activity at 25 ug/ml after 1 hr. It counts as functional.
Assay [10] relates to RAW264.7. The assay is described as follows: Antiinflammatory activity in mouse RAW264.7 cells assessed as reduction in LPS-induced NO production preincubated for 1 hr followed by LPS stimulation measured after 18 hrs by Griess assay. It counts as functional, cell-based.
In assay [11] the test system is RAW264.7. The assay is described as follows: Antiinflammatory activity in mouse RAW264.7 cells assessed as reduction in LPS-induced NO production at 25 ug/ml preincubated for 1 hr followed by LPS stimulation measured after 18 hrs by DAF-FMDA probe based flow cytometry. It counts as functional, cell-based.

`COc1ccc(CCc2cc(O)c(-c3c(OC)cc([C@@H]4OO[C@H]4CO)cc3OC)c(OC)c2)cc1`: the IC50 in assay [1] was found to be 2.3 µM; in assay [2], 5.3 µM; in assay [3] it was 4.4 µM; in [4], 5.1 µM; in assay [5], 4.7 µM. Moreover, the outcome in assay [6] was inactive. Besides, in [7], the inhibition entry is “Active”. For the same compound, the Activity in assay [8] was 18.1%.

Take `COc1ccc(CCc2cc(OC)c(O[C@H](CO)[C@@H](O)c3ccc(O)c(OC)c3)c(OC)c2)cc1`: the IC50 in assay [1], in [2], in [3], in [4] and in [5] was over 40 µM throughout. Besides, the outcome in assay [6] was inactive. Moreover, the inhibition result in assay [7] is “Active”. In addition, in assay [8], the Activity was determined as 27.6%.

Take `CC(C)C1=C(O)C(=O)[C@@]2(C)[C@@H]3CC[C@H]2[C@H]1C(=O)NC3`: the IC50 in assay [1], in [2], in assay [3], in [4] and in assay [5] was over 40 µM each time. Moreover, in [6], the result was inactive.

For the compound `COC(=O)/C(=C(/C(=O)O)C(C)C)[C@@H]1CC[C@@H]2CN(C)C(=O)[C@@]21C`, the half-inhibitory concentration (IC50) in assay [1], in assay [2], in assay [3], in assay [4] and in [5] was over 40 µM in each case. Further, the outcome in assay [6] was inactive.

On to `Cc1c(C)c2c(c(C)c1O)CCC(C)(C(=O)O)O2` (stereo unspecified), for which the Activity in assay [9] turned out to be 95.5%.

As for `CC(C)C[C@@H](C=O)NC(=O)[C@H](CC(C)C)NC(=O)[C@H](CC(C)C)NC(=O)OCc1ccccc1` [MG-132] (Cbz-Leu-Leu-Leu-aldehyde), the IC50 in assay [10] was 0.2 µM.

Turning to `COc1cc(CCc2ccc(O)cc2)cc(O)c1-c1c(OC)cc([C@@H]2OO[C@H]2CO)cc1OC`, the IC50 in assay [1] is 23.5 µM; in [2] it was over 40 µM; in assay [3], 20.8 µM; in [10], 21.4 µM; in [4] it was 34.4 µM; in assay [5], 19.4 µM. Besides, in assay [11], the outcome was inactive. For the same compound, the inhibition entry in assay [7] is “Active”. Besides, the Activity in assay [8] turned out to be 37.6%.

Take `COc1ccc(CCc2cc(OC)c3c(c2)O[C@@H](c2ccc(O)c(OC)c2)[C@H](CO)O3)cc1`: the IC50 in [1], in assay [2], in assay [3], in assay [4] and in assay [5] was over 40 µM in each case. Besides, the outcome in assay [6] was inactive. The inhibition entry in assay [7] is “inactive”. In addition, the Activity in assay [8] was determined as 9.56%.

`CC(=O)O[C@H]1C(=O)[C@@]2(C)[C@H]([C@H](OC(=O)c3ccccc3)[C@]3(O)C[C@H](OC(=O)[C@H](O)[C@@H](NC(=O)c4ccccc4)c4ccccc4)C(C)=C1C3(C)C)[C@]1(OC(C)=O)CO[C@@H]1C[C@@H]2O` [PACLITAXEL]: the IC50 in assay [1], in assay [2], in [3], in assay [4] and in assay [5] was under 0.008 µM throughout.

`CC(C)[C@@H]1[C@H]2OC(=O)[C@@H]1[C@@H]1CC[C@@H]3CN(C)[C@H]2[C@@]31C`: the IC50 in assay [1], in assay [2], in assay [3], in assay [4] and in [5] was over 40 µM each time. Also, in [6], the outcome was inactive.

As for `CC(C)[C@@H]1[C@@H]([C@@H]2CC[C@@H]3CN(C)C(=O)[C@@]32C)C(=O)O[C@H]1O`, the IC50 in [1], in [2], in assay [3], in [4] and in assay [5] was over 40 µM in each case. The outcome in assay [6] was inactive.

Take `CC(C)C1=C(O)C(=O)[C@@]2(C)[C@@H]3CC[C@H]2[C@H]1C(=O)N(C)C3`: the concentration for half-maximal inhibition (IC50) in assay [1], in assay [2], in assay [3], in assay [4] and in assay [5] was over 40 µM throughout. The result in assay [6] was inactive.

Turning to `CC(C)[C@H]1[C@@H]2C(=O)O[C@H]1[C@@]1(O)N(C)C[C@H]3CC[C@@H]2[C@]31C`, the IC50 in [1], in assay [2], in [3], in assay [4] and in assay [5] was over 40 µM in each case. In addition, in [6], the result was inactive.

By IC50 is commonly meant the midpoint of a concentration-inhibition curve.

The record behind these values is ChEMBL document CHEMBL4138264, “Seco-Dendrobine-Type Alkaloids and Bioactive Phenolics from Dendrobium findlayanum” (J Nat Prod, 2018).
